Reference: patent publication US20250011368A1, “DLL3 TARGETING PEPTIDES AND CONSTRUCTS THEREOF” (MARIANA ONCOLOGY INC., priority 2023, published 2025)
Numbered stars: 1 amine (or outer) side, 2 acyl side, 3 side chain; on linkers, the order of the positions; unused ones are H or OH. Bridge positions count the residues as written; N and C are the ends. Square brackets hold non-standard residues; d marks the D form. Side chains are listed from the residue outwards. Peptide text beside a SMILES is read from it. I, II: the chains in the order shown. * marks the point of attachment. DOTA = O=C(O)CN1CCN(CC(=O)O)CCN(CC(=O)*)CCN(CC(=O)O)CC1; PEG8 = NCCOCCOCCOCCOCCOCCOCCOCCOCCC(=O)O; γGlu = O=C(O)[C@H](CCC(=O)[*:2])N[*:1]; 2Nal = N[C@@H](Cc1ccc2ccccc2c1)C(=O)O; C12 diacid = O=C(O)CCCCCCCCCCC(=O)*; Palmitoyl = CCCCCCCCCCCCCCCC(=O)*; NMeL = CN[C@@H](CC(C)C)C(=O)O; NMeK = CN[C@@H](CCCCN)C(=O)O; Lauroyl = CCCCCCCCCCCC(=O)*

molecular target: T1, human DLL3 (Homo sapiens, UniProt Q9NYJ7); assay: Affinity determination by Surface Plasmon Resonance (SPR); type: binding; details: 25° C., biotinylated human DLL3 immobilized on streptavidin sensor chip, 1:1 binding model; read-out: SPR KD
T1 sequence (Q9NYJ7 27-618): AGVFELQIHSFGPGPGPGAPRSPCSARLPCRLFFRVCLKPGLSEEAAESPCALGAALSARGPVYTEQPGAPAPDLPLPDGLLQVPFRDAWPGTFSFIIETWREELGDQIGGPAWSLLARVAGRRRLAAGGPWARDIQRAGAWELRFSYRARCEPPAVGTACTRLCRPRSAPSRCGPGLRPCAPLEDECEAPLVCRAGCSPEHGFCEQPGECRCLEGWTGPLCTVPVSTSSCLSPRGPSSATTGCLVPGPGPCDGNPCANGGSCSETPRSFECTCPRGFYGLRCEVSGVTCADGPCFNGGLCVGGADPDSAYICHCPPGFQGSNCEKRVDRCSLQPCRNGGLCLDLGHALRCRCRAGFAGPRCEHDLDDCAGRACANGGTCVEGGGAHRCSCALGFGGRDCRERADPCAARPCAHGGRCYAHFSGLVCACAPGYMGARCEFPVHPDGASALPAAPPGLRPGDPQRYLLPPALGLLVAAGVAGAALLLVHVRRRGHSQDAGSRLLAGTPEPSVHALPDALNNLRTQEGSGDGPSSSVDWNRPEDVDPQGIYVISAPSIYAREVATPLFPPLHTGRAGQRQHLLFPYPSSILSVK
In short: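 Biotinylated human DLL3 was captured on a streptavidin chip with a reference surface. Compounds at several concentrations were injected at 100 μL/minute in phosphate buffer (137 mM NaCl, 2.7 mM KCl, 0.05% P20, 2% DMSO). Affinity and kinetics came from 1:1 model fits of the sensorgrams.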

SMILES | Kd [nM]
CC[C@H](C)[C@H](NC(=O)[C@@H](NC(=O)[C@H](Cc1c[nH]c2ccccc12)NC(C)=O)[C@@H](C)O)C(=O)N[C@H]1CSSC[C@@H](C(=O)N[C@@H](Cc2c[nH]c3ccccc23)C(=O)N(C)[C@@H](CC(C)C)C(=O)N[C@H](CCCCNC(=O)CN2CCN(CC(=O)O)CCN(CC(=O)O)CCN(CC(=O)O)CC2)C(N)=O)NC(=O)[C@H](CC(=O)O)NC(=O)[C@H](Cc2cnc[nH]2)NC(=O)[C@H](Cc2c[nH]c3ccccc23)NC(=O)[C@H](CC(N)=O)NC(=O)[C@H](CC(N)=O)NC1=O [compound 345, Ac-W-T-I-C(3)-N-N-W-H-D-C(3)-W-NmeL-[D-Lys(DOTA)]-NH2] (Ac-WTICNNWHDCW[NMeL][dK](DOTA)-NH2; disulfide 4-10) | 1 to 10
CCCCCCCCCCCC(=O)NCCCC[C@H](NC(=O)[C@@H](NC(=O)[C@H](Cc1c[nH]c2ccccc12)NC(C)=O)[C@@H](C)O)C(=O)N[C@H]1CSSC[C@@H](C(=O)N[C@@H](Cc2c[nH]c3ccccc23)C(=O)N2CCC[C@H]2C(=O)N[C@H](CCCCNC(=O)CN2CCN(CC(=O)O)CCN(CC(=O)O)CCN(CC(=O)O)CC2)C(N)=O)NC(=O)[C@H](CC(=O)O)NC(=O)[C@H](Cc2cnc[nH]2)NC(=O)[C@H](Cc2c[nH]c3ccccc23)NC(=O)[C@H](CC(N)=O)NC(=O)[C@H](CC(N)=O)NC1=O [compound 346, Ac-W-T-K(C12)-C(3)-N-N-W-H-D-C(3)-W-P-[D-Lys(DOTA)]-NH2] (Ac-WTK(Lauroyl)CNNWHDCWP[dK](DOTA)-NH2; disulfide 4-10) | 10 to 100
CCCCCCCCCCCCCCCC(=O)NCCCC[C@H](NC(=O)[C@@H](NC(=O)[C@H](Cc1c[nH]c2ccccc12)NC(C)=O)[C@@H](C)O)C(=O)N[C@H]1CSSC[C@@H](C(=O)N[C@@H](Cc2c[nH]c3ccccc23)C(=O)N2CCC[C@H]2C(=O)N[C@H](CCCCNC(=O)CN2CCN(CC(=O)O)CCN(CC(=O)O)CCN(CC(=O)O)CC2)C(N)=O)NC(=O)[C@H](CC(=O)O)NC(=O)[C@H](Cc2cnc[nH]2)NC(=O)[C@H](Cc2c[nH]c3ccccc23)NC(=O)[C@H](CC(N)=O)NC(=O)[C@H](CC(N)=O)NC1=O [compound 348, Ac-W-T-K(C16)-C(3)-N-N-W-H-D-C(3)-W-P-[D-Lys(DOTA)]-NH2] (Ac-WTK(Palmitoyl)CNNWHDCWP[dK](DOTA)-NH2; disulfide 4-10) | 100 to 300
CC[C@H](C)[C@H](NC(=O)[C@@H](NC(=O)[C@H](Cc1c[nH]c2ccccc12)NC(=O)CCCCCCCCCCC(=O)O)[C@@H](C)O)C(=O)N[C@H]1CSSC[C@@H](C(=O)N[C@@H](Cc2c[nH]c3ccccc23)C(=O)N2CCC[C@H]2C(=O)N[C@H](CCCCNC(=O)CN2CCN(CC(=O)O)CCN(CC(=O)O)CCN(CC(=O)O)CC2)C(N)=O)NC(=O)[C@H](CC(=O)O)NC(=O)[C@H](Cc2cnc[nH]2)NC(=O)[C@H](Cc2c[nH]c3ccccc23)NC(=O)[C@H](CC(N)=O)NC(=O)[C@H](CC(N)=O)NC1=O [compound 349, C12OH-W-T-I-C(3)-N-N-W-H-D-C(3)-W-P-[D-Lys(DOTA)]-NH2] ({C12 diacid}-WTICNNWHDCWP[dK](DOTA)-NH2; disulfide 4-10) | 1 to 10
CC[C@H](C)[C@H](NC(=O)[C@@H](NC(=O)[C@H](Cc1c[nH]c2ccccc12)NC(C)=O)[C@@H](C)O)C(=O)N[C@H]1CSSC[C@@H](C(=O)N[C@@H](Cc2c[nH]c3ccccc23)C(=O)N2CCC[C@H]2C(=O)N2CCC[C@@H]2C(=O)N2CCC[C@@H]2C(=O)N2CCC[C@@H]2C(=O)NCCOCCOCCOCCOCCOCCOCCOCCOCCC(=O)N[C@H](CCCCNC(=O)CN2CCN(CC(=O)O)CCN(CC(=O)O)CCN(CC(=O)O)CC2)C(N)=O)NC(=O)[C@H](CC(=O)O)NC(=O)[C@H](Cc2c[nH]cn2)NC(=O)[C@H](Cc2ccc3ccccc3c2)NC(=O)[C@H](CC(N)=O)NC(=O)[C@H](CC(N)=O)NC1=O [compound 357, Ac-W-T-I-C(3)-N-N-(2Nal)-H-D-C(3)-W-P-(D-Pro)3-PEG8-[D-Lys(DOTA)]-NH2] (Ac-WTICNN[2Nal]HDCWP[dP][dP][dP][PEG8][dK](DOTA)-NH2; disulfide 4-10) | < 1
CC[C@H](C)[C@H](NC(=O)[C@@H](NC(=O)[C@H](Cc1c[nH]c2ccccc12)NC(C)=O)[C@@H](C)O)C(=O)N[C@H]1CSSC[C@@H](C(=O)N[C@@H](Cc2c[nH]c3ccccc23)C(=O)N2CCC[C@H]2C(=O)N[C@H](CCCCNC(=O)[C@H]2CCCN2C(=O)[C@H]2CCCN2C(=O)[C@H]2CCCN2C(=O)CCOCCOCCOCCOCCOCCOCCOCCOCCNC(=O)CN2CCN(CC(=O)O)CCN(CC(=O)O)CCN(CC(=O)O)CC2)C(N)=O)NC(=O)[C@H](CC(=O)O)NC(=O)[C@H](Cc2c[nH]cn2)NC(=O)[C@H](Cc2ccc3ccccc3c2)NC(=O)[C@H](CC(N)=O)NC(=O)[C@H](CC(N)=O)NC1=O [compound 358, Ac-W-T-I-C(3)-N-N-(2Nal)-H-D-C(3)-W-P-[D-Lys((D-Pro)3-PEG8-DOTA)]-NH2] (Ac-WTICNN[2Nal]HDCWP[dK]([dP-dP-dP-PEG8-DOTA])-NH2; disulfide 4-10) | < 1

The next lines start with the values.

Kd [nM] | SMILES
< 1 | CC[C@H](C)[C@H](NC(=O)[C@@H](NC(=O)[C@H](Cc1c[nH]c2ccccc12)NC(C)=O)[C@@H](C)O)C(=O)N[C@H]1CSSC[C@@H](C(=O)N[C@@H](Cc2c[nH]c3ccccc23)C(=O)N(C)[C@@H](CCCCNC(=O)CN2CCN(CC(=O)O)CCN(CC(=O)O)CCN(CC(=O)O)CC2)C(N)=O)NC(=O)[C@H](CC(=O)O)NC(=O)[C@H](Cc2cnc[nH]2)NC(=O)[C@H](Cc2ccc3ccccc3c2)NC(=O)[C@H](CC(N)=O)NC(=O)[C@H](CC(N)=O)NC1=O [compound 352, Ac-W-T-I-C(3)-N-N-(2Nal)-H-D-C(3)-W-[NmeK(DOTA)]-NH2] (Ac-WTICNN[2Nal]HDCW[NMeK](DOTA)-NH2; disulfide 4-10)
< 1 | CC[C@H](C)[C@H](NC(=O)[C@@H](NC(=O)[C@H](Cc1c[nH]c2ccccc12)NC(C)=O)[C@@H](C)O)C(=O)N[C@H]1CSSC[C@@H](C(=O)N[C@@H](Cc2c[nH]c3ccccc23)C(=O)N2CCC[C@H]2C(=O)N[C@H](CCCCNC(=O)CNC(=O)[C@H](CO)NC(=O)CNC(=O)[C@H](CO)NC(=O)CNC(=O)[C@H](CO)NC(=O)CN2CCN(CC(=O)O)CCN(CC(=O)O)CCN(CC(=O)O)CC2)C(N)=O)NC(=O)[C@H](CC(=O)O)NC(=O)[C@H](Cc2cnc[nH]2)NC(=O)[C@H](Cc2ccc3ccccc3c2)NC(=O)[C@H](CC(N)=O)NC(=O)[C@H](CC(N)=O)NC1=O [compound 353, Ac-W-T-I-C(3)-N-N-(2Nal)-H-D-C(3)-W-P-[D-Lys(G-S-G-S-G-S-DOTA)]-NH2] (I: Ac-WTICNN[2Nal]HDCWP[dK]-NH2 / II: {DOTA}-SGSGSG; disulfide I:4-I:10; amide I:13-II:C)
< 1 | CC[C@H](C)[C@H](NC(=O)[C@@H](NC(=O)[C@H](Cc1c[nH]c2ccccc12)NC(C)=O)[C@@H](C)O)C(=O)N[C@H]1CSSC[C@@H](C(=O)N[C@@H](Cc2c[nH]c3ccccc23)C(=O)N2CCC[C@H]2C(=O)N[C@H](CCCCNC(=O)CC[C@H](NC(=O)CN2CCN(CC(=O)O)CCN(CC(=O)O)CCN(CC(=O)O)CC2)C(=O)O)C(N)=O)NC(=O)[C@H](CC(=O)O)NC(=O)[C@H](Cc2cnc[nH]2)NC(=O)[C@H](Cc2ccc3ccccc3c2)NC(=O)[C@H](CC(N)=O)NC(=O)[C@H](CC(N)=O)NC1=O [compound 354, Ac-W-T-I-C(3)-N-N-(2Nal)-H-D-C(3)-W-P-[D-Lys(gE-DOTA)]-NH2] (Ac-WTICNN[2Nal]HDCWP[dK]([γGlu-DOTA])-NH2; disulfide 4-10)
< 1 | CC[C@H](C)[C@H](NC(=O)[C@@H](NC(=O)[C@H](Cc1c[nH]c2ccccc12)NC(C)=O)[C@@H](C)O)C(=O)N[C@H]1CSSC[C@@H](C(=O)N[C@@H](Cc2c[nH]c3ccccc23)C(=O)N2CCC[C@H]2C(=O)N[C@H](CCCCNC(=O)CC[C@H](NC(=O)CC[C@H](NC(=O)CC[C@H](NC(=O)CN2CCN(CC(=O)O)CCN(CC(=O)O)CCN(CC(=O)O)CC2)C(=O)O)C(=O)O)C(=O)O)C(N)=O)NC(=O)[C@H](CC(=O)O)NC(=O)[C@H](Cc2cnc[nH]2)NC(=O)[C@H](Cc2ccc3ccccc3c2)NC(=O)[C@H](CC(N)=O)NC(=O)[C@H](CC(N)=O)NC1=O [compound 355, Ac-W-T-I-C(3)-N-N-(2Nal)-H-D-C(3)-W-P-[D-Lys(gE-gE-gE-DOTA)]-NH2] (Ac-WTICNN[2Nal]HDCWP[dK]([γGlu-γGlu-γGlu-DOTA])-NH2; disulfide 4-10)
< 1 | CC[C@H](C)[C@H](NC(=O)[C@@H](NC(=O)[C@H](Cc1c[nH]c2ccccc12)NC(C)=O)[C@@H](C)O)C(=O)N[C@H]1CSSC[C@@H](C(=O)N[C@@H](Cc2c[nH]c3ccccc23)C(=O)N2CCC[C@H]2C(=O)N[C@H](CCCCNC(=O)[C@H]2CCCN2C(=O)CCOCCOCCOCCOCCOCCOCCOCCOCCNC(=O)CN2CCN(CC(=O)O)CCN(CC(=O)O)CCN(CC(=O)O)CC2)C(N)=O)NC(=O)[C@H](CC(=O)O)NC(=O)[C@H](Cc2cnc[nH]2)NC(=O)[C@H](Cc2ccc3ccccc3c2)NC(=O)[C@H](CC(N)=O)NC(=O)[C@H](CC(N)=O)NC1=O [compound 356, Ac-W-T-I-C(3)-N-N-(2Nal)-H-D-C(3)-W-P-[D-Lys((D-Pro)-PEG8-DOTA)]-NH2] (Ac-WTICNN[2Nal]HDCWP[dK]([dP-PEG8-DOTA])-NH2; disulfide 4-10)
